Like-named read-outs stand apart in the source and are kept apart here.
Experiments:
[1] = tested on: T47D (breast epithelial cancer); test: in vitro cytotoxicity assay, T47D cells; assay type: cell-based; conditions: Homo sapiens, 96 h, read-out: IC50 T47D
Method: The cells were maintained and plated for the cytotox experiments in media recommended by the manufacturers. Cells were plated in the 96-well flat bottom plates at a seeding density of 800 cells per well (Ishikawa, JEG-3 or SK-OV-6), 1,000 cells per well (KB, Namalwa, EOL-1, OV-90 and Igrov-1) or 2,000 cell per well (NCI H2110, JHOS-4 and T47D). Conjugates or free drug compounds were diluted in RPMI-1640 (Life Technologies) supplemented with heat-inactivated 100 FBS (Life Technologies) and 0.1 mg/ml gentamycin (Life Technologies), and added to the plated cells. To determine specificity of cytotoxic activity of the conjugates an excess of unconjugated antibody was added to a separate set of diluted conjugates (+block samples, IC50 table). The plates were incubated at 37° C., 500 CO2 for either 4 days (JHOS-4 and T47D cells) or 5 days (KB, NCI H2110, Ishikawa, EOL-1, JEG-3, OV-90, SK-OV-6, NC-H441 and Igrov-1 cells). Alamar blue assay (Invitrogen) was used to determine viability of JHOS-4 and T47D cells, and WST-8 assay (Donjindo Molecular Technologies, Inc.) was applied for viability of KB, NCI H2110, Namalwa, Ishikawa, EOL-1, JEG-4, OV-90, SK-OV-6, NCI-H4441 and Igrov-1 cells. The assays were performed in accordance with the manufacturer's protocols. Killing curves and IC50 were generated using a sigmoidal dose-response nonlinear regression curve fit (GraphPad Software Inc.).

[2] = tested on: KB (cervical carcinoma); test: in vitro cytotoxicity assay, KB cells; assay type: cell-based, human; conditions: free cytotoxic compound, 5 days
From the text: (§1) Following cell lines were used for the study: KB (cervical carcinoma, ATCC), NCI-H2110 (Non Small Cell Lung Carcinoma, ATCC), Namalwa (Burkitt's lymphoma, ATCC), Ishikawa (endometrial adenocarcinoma, ECACC), EOL-1 (Acute Myeloid Leukemia, ECACC), JEG-3 (choriocarcinoma, ATCC), JHOS-4 (ovarian adenocarcinoma, Riken Bioresource Center), OV-90 (ovarian adenocarcinoma, ATCC), SKOV-6 (ovarian adenocarcinoma, Memorial Sloan Kettering Cancer Center), Igrov-1 (ovarian adenocarcinoma, National Cancer Institute), KB-GRC1-MDR (cervical carcinoma/Pgp positive, gift from Dr. Roninson at the Ordway Research Institute) and T47D (breast epithelial cancer, ATCC). The cells were maintained and plated for the cytotox experiments in media recommended by the manufacturers. Cells were plated in the 96-well flat bottom plates at a seeding density of 800 cells per well (Ishikawa, JEG-3 or SK-OV-6), 1,000 cells per well (KB, Namalwa, EOL-1, OV-90 and Igrov-1) or 2,000 cell per well (NCI H2110, JHOS-4 and T47D). Conjugates or free drug compounds were diluted in RPMI-1640 (Life Technologies) supplemented with heat-inactivated 100 FBS (Life Technologies) and 0.1 mg/ml gentamycin (Life Technologies), and added to the plated cells. To determine specificity of cytotoxic activity of the conjugates an excess of unconjugated antibody was added to a separate set of diluted conjugates (+block samples, IC50 table). The plates were incubated at 37° C., 500 CO2 for either 4 days (JHOS-4 and T47D cells) or 5 days (KB, NCI H2110, Ishikawa, EOL-1, JEG-3, OV-90, SK-OV-6, NC-H441 and Igrov-1 cells). Alamar blue assay (Invitrogen) was used to determine viability of JHOS-4 and T47D cells, and WST-8 assay (Donjindo Molecular Technologies, Inc.) was applied for viability of KB, NCI H2110, Namalwa, Ishikawa, EOL-1, JEG-4, OV-90, SK-OV-6, NCI-H4441 and Igrov-1 cells. The assays were performed in accordance with the manufacturer's protocols. Killing curves and IC50 were generated using a sigmoidal dose-response nonlinear regression curve fit (GraphPad Software Inc.).

[3] = tested on: NCI-H2110 (Non Small Cell Lung Carcinoma); test: in vitro cytotoxicity assay, NCI-H2110 cells; assay type: cell-based; conditions: free cytotoxic compound, 5 days
From the text: as §1

[4] = tested on: Namalwa (Burkitt's lymphoma); test: in vitro cytotoxicity assay, Namalwa cells; assay type: cell-based, human; conditions: free cytotoxic compound
From the text: as §1

[5] = tested on: Ishikawa (endometrial adenocarcinoma); test: in vitro cytotoxicity assay, Ishikawa cells; assay type: cell-based; conditions: free cytotoxic compound, 5 days
From the text: as §1

[6] = tested on: EOL-1 (Acute Myeloid Leukemia); test: in vitro cytotoxicity assay, EOL-1 cells; assay type: cell-based; conditions: Homo sapiens, EOL1, 120 h; free cytotoxic compound; 5 days
From the text: as §1

[7] = tested on: KB-GRC1-MDR (cervical carcinoma/Pgp positive); test: cells; conditions: read-out: IC50 KB-MDR
From the text: Following cell lines were used for the study: KB (cervical carcinoma, ATCC), NCI-H2110 (Non Small Cell Lung Carcinoma, ATCC), Namalwa (Burkitt's lymphoma, ATCC), Ishikawa (endometrial adenocarcinoma, ECACC), EOL-1 (Acute Myeloid Leukemia, ECACC), JEG-3 (choriocarcinoma, ATCC), JHOS-4 (ovarian adenocarcinoma, Riken Bioresource Center), OV-90 (ovarian adenocarcinoma, ATCC), SKOV-6 (ovarian adenocarcinoma, Memorial Sloan Kettering Cancer Center), Igrov-1 (ovarian adenocarcinoma, National Cancer Institute), KB-GRC1-MDR (cervical carcinoma/Pgp positive, gift from Dr. Roninson at the Ordway Research Institute) and T47D (breast epithelial cancer, ATCC). The cells were maintained and plated for the cytotox experiments in media recommended by the manufacturers. Cells were plated in the 96-well flat bottom plates at a seeding density of 800 cells per well (Ishikawa, JEG-3 or SK-OV-6), 1,000 cells per well (KB, Namalwa, EOL-1, OV-90 and Igrov-1) or 2,000 cell per well (NCI H2110, JHOS-4 and T47D). […] To determine specificity of cytotoxic activity of the conjugates an excess of unconjugated antibody was added to a separate set of diluted conjugates (+block samples, IC50 table). The plates were incubated at 37° C., […] for either 4 days (JHOS-4 and T47D cells) or 5 days (KB, NCI H2110, Ishikawa, EOL-1, JEG-3, OV-90, SK-OV-6, NC-H441 and Igrov-1 cells). Alamar blue assay (Invitrogen) was used to determine viability of JHOS-4 and T47D cells, and WST-8 assay (Donjindo Molecular Technologies, Inc.) was applied for viability of KB, NCI H2110, Namalwa, Ishikawa, EOL-1, […], OV-90, SK-OV-6, […] and Igrov-1 cells. The assays were performed in accordance with the manufacturer's protocols. Killing curves and IC50 were generated using a sigmoidal dose-response nonlinear regression curve fit (GraphPad Software Inc.).

[8] = Phase I clinical evaluation; cited from earlier work

SMILES | IC50 ([2]; Homo sapiens, KB, 120 h) [nM] | IC50 ([3]; NCI-H2110, 120 h) [nM] | IC50 ([4]; Homo sapiens) [nM] | IC50 ([5]; Homo sapiens, Ishikawa, 120 h) [nM] | IC50 [6] [nM] | also measured
COC(=O)c1cc2cc(NC(=O)c3cc(NCCCCOc4cc5c(cc4OC)C(=O)N4c6ccccc6C[C@H]4C=N5)cn3C)ccc2s1 [Compound 216] | 0.5 | 9 |  |  |  | IC50 [1]: 2 nM
COC(=O)CCNC(=O)c1cc2cc(NC(=O)c3cc(NC(=O)CCCOc4cc5c(cc4OC)C(=O)N4c6ccccc6C[C@H]4C=N5)cn3C)ccc2s1 [Compound 9] | 0.04 | 0.2 | 0.03 | 0.07 | 0.01 | 
COc1cc2c(cc1OCCCC(=O)Nc1cn(C)c(C(=O)Nc3ccc4sc(C(=O)NCC(C)(C)SSC)cc4c3)n1)N=C[C@@H]1Cc3ccccc3N1C2=O [Compound 155] |  |  | 0.03 |  | 0.009 | 
COC(=O)CCNC(=O)c1nc(NC(=O)c2cc3cc(NC(=O)CCCOc4cc5c(cc4OC)C(=O)N4c6ccccc6C[C@H]4C=N5)ccc3o2)cn1C [Compound 180] | 1 | 2 | 0.3 |  |  | 
COC(=O)c1cc2cc(NC(=O)c3cc(NC(=O)NCCOc4cc5c(cc4OC)C(=O)N4c6ccccc6C[C@H]4C=N5)cn3C)ccc2s1 [Compound 214] | > 5 | > 5 |  |  |  | 
COC(=O)c1cc2cc(NC(=O)c3cc(NC(=O)CCCOc4cc5c(cc4OC)C(=O)N4c6ccccc6C[C@H]4C=N5)cn3C)ccc2s1 [Compound 7] |  |  | 0.02 |  |  | 
COc1cc2c(cc1OCCCCNC(=O)c1cc(NC(=O)c3cc(NC(=O)CCC(C)(C)SSC)cn3C)cn1C)N=C[C@@H]1Cc3ccccc3N1C2=O [Compound 192] | 0.9 | 2 | 0.4 |  |  | 
COc1cc2c(cc1OCCCC(=O)Nc1cc(C(=O)Nc3cc(C(=O)NCC(C)(C)SSC)n(C)c3)n(C)c1)N=C[C@@H]1Cc3ccccc3N1C2=O [Compound 132] | 0.4 | 2 | 0.09 |  | 0.04 | 
COc1cc2c(cc1OCCCC(=O)Nc1ccc(-c3cc(C(=O)NCC(C)(C)S)n(C)c3)cc1)NC(S(=O)(=O)O)[C@@H]1Cc3ccccc3N1C2=O (stereo partly shown) [Compound 30] |  |  | 0.7 |  | 0.1 | 
COc1cc2c(cc1OCCCC(=O)Nc1cn(C)c(C(=O)Nc3ccc(-c4cc(C(=O)NCC(C)(C)SSC)n(C)c4)cc3)n1)N=C[C@@H]1Cc3ccccc3N1C2=O [Compound 125] | 0.04 | 0.06 | 0.01 | 0.05 | 0.004 | IC50 [7]: 0.9 nM
COc1cc2c(cc1OCCCC(=O)Nc1cn(C)c(C(=O)Nc3ccc4nc(C(=O)NCC(C)(C)S(C)=S)n(C)c4c3)n1)N=C[C@@H]1Cc3ccccc3N1C2=O (stereo partly shown) [Compound 99] |  |  |  |  |  | IC50 [4]: 0.1 nM; IC50 [2]: 0.5 nM; IC50 [5]: 0.7 nM; IC50 [3]: 1 nM
COc1cc2c(cc1OCCCC(=O)Nc1cn(C)c(C(=O)Nc3ccc(-c4cc(C(=O)NCC(C)(C)SSC)n(C)c4)cn3)n1)N=C[C@@H]1Cc3ccccc3N1C2=O [Compound 103] | 0.07 | 0.2 | 0.02 | 0.05 |  | IC50 [7]: 0.4 nM
COC(=O)CCNC(=O)c1cc2cc(NC(=O)c3nc(NC(=O)CCCOc4cc5c(cc4OC)C(=O)N4c6ccccc6C[C@H]4C=N5)cn3C)ccc2s1 [Compound 142] |  |  | 0.01 |  | 0.006 | 
COc1cc2c(cc1OCCCC(=O)Nc1cn(C)c(C(=O)NCc3cccc(C(=O)NCC(C)(C)S(C)=S)c3)n1)N=C[C@@H]1Cc3ccccc3N1C2=O (stereo partly shown) [Compound 121] |  |  |  |  |  | IC50 [4]: 0.6 nM; IC50 [2]: 2 nM; IC50 [5]: 2 nM; IC50 [3]: 2 nM; IC50 ([7]; free cytotoxic compound): > 5 nM
COC(=O)c1cc2cc(NC(=O)c3cc(Nc4cccc(COc5cc6c(cc5OC)C(=O)N5c7ccccc7C[C@H]5C=N6)c4)cn3C)ccc2s1 [Compound 63] | 1 | 3 | 0.3 | 0.6 |  | IC50 [7]: > 5 nM
COc1cc2c(cc1OCCCC(=O)Nc1ccc(C(=O)Nc3cc(C(=O)NCC(C)(C)S(C)=S)n(C)c3)nc1)N=C[C@@H]1Cc3ccccc3N1C2=O (stereo partly shown) [Compound 117] |  |  |  |  |  | IC50 [4]: 0.3 nM; IC50 [2]: 0.6 nM; IC50 [5]: 1 nM; IC50 [3]: 2 nM; IC50 ([7]; free cytotoxic compound): > 5 nM
COc1cc2c(cc1OCCCC(=O)Nc1cn(C)c(C(=O)Nc3ccc(-c4csc(C(=O)NCC(C)(C)SSC)n4)cc3)n1)N=C[C@@H]1Cc3ccccc3N1C2=O [Compound 113] | 0.2 | 0.4 | 0.07 | 0.2 |  | IC50 [7]: 3 nM
COc1cc2c(cc1OCCCC(=O)Nc1cn(C)c(C(=O)Nc3ccc(N)cc3)n1)N=C[C@@H]1Cc3ccccc3N1C2=O [Compound 149] | 0.2 | 0.4 | 0.06 | 0.1 |  | 
C=C1C[C@H]2C=Nc3cc(OCCCOc4cc5c(cc4OC)C(=O)N4CC(=C)C[C@H]4C=N5)c(OC)cc3C(=O)N2C1 [SJG-136] |  |  |  |  |  | maximum tolerated dose [8]: 45 μg/m^2
COc1cc2c(cc1OCCCC(=O)Nc1cn(C)c(C(=O)Nc3ccc4sccc4c3)n1)N=C[C@@H]1Cc3ccccc3N1C2=O [Compound 137] | 0.05 | 0.1 | 0.02 |  | 0.01 | 
COc1cc2c(cc1OCc1cccc(CC(=O)Nc3cc(C(=O)Nc4ccc(-c5cc(C(=O)NCC(C)(C)S(C)=S)n(C)c5)cc4)n(C)c3)c1)N=C[C@@H]1Cc3ccccc3N1C2=O (stereo partly shown) [Compound 55] |  |  |  |  |  | IC50 [4]: 4 nM; IC50 [2]: 9 nM; IC50 [3]: 2 nM
COc1cc2c(cc1OCCCC(=O)Nc1cc(C(=O)Nc3ccc(-c4cc(C(=O)NCC(C)(C)SSC)n(C)c4)cc3)n(C)c1)N=C[C@@H]1Cc3ccccc3N1C2=O [Compound 85] | 0.01 | 0.1 | 0.03 | 0.1 | 0.008 | IC50 [7]: > 5 nM
COC(=O)CCNC(=O)c1cc2cc(NC(=O)c3nc(NC(=O)CCCOc4cc5c(cc4OC)C(=O)N4c6ccccc6C[C@H]4C=N5)cn3C)ccc2o1 [Compound 188] | 0.08 | 0.5 | 0.06 |  | 0.02 | 
COc1cc2c(cc1OCCCC(=O)Nc1cccc(C(=O)Nc3cc(C(=O)NCC(C)(C)SSC)n(C)c3)n1)N=C[C@@H]1Cc3ccccc3CN1C2=O [Compound 205] | 0.4 | 0.8 | 0.1 | 0.3 |  | IC50 [7]: 4 nM
COC(=O)CCNC(=O)c1cc2cc(NC(=O)c3cc(NC(=O)CCCOc4cc5c(cc4OC)C(=O)N4c6ccccc6C[C@H]4C=N5)cn3CCCNC(=O)OC(C)(C)C)ccc2o1 [Compound 199] | 1 | 5 | > 0.5 |  |  | IC50 [3]: 3 nM
COC(=O)CCNC(=O)c1cc2cc(NC(=O)c3cc(NC(=O)CCCOc4cc5c(cc4OC)C(=O)N4c6ccccc6C[C@H]4C=N5)cn3C)ccc2o1 [Compound 185] | 0.2 | 0.5 | 0.2 |  |  | 
COc1cc2c(cc1OCCCC(=O)Nc1cn(C)c(C(=O)Nc3ccc(-c4cc(C(=O)NCC(C)(C)SSC)n(C)c4)cc3)n1)N=C[C@@H]1Cc3ccccc3CN1C2=O [Compound 206] | 0.006 | 0.01 | 0.001 | 0.004 |  | IC50 [7]: 0.1 nM
COc1cc2c(cc1OCCCC(=O)Nc1nc(C)c(C(=O)Nc3ccc4sc(C(=O)NCC(C)(C)S(C)=S)cc4c3)s1)N=C[C@@H]1Cc3ccccc3N1C2=O (stereo partly shown) [Compound 81] |  |  |  |  |  | IC50 [4]: 3 nM; IC50 [2]: > 5 nM; IC50 [5]: > 5 nM; IC50 [3]: > 5 nM; IC50 ([7]; free cytotoxic compound): > 5 nM
